Measured values from paper PMC10266688 (PLOS ONE, 2023).

What was measured:
TC1-OVA cells = assay: Antigen presentation (H-2Kb/[…]) by TC1-OVA cells, flow cytometry; format: cell-based, mouse; settings: 0.25 μM, 12 h
Description: TC1 cells stably expressing Ovalbumin (TC1-OVA) were plated (125,000 cells/well) in a 6 well plate in 2 mL RPMI complete medium.
C) TC1-OVA cells were plated (125,000 cells/well) in a 6 well plate in 2 mL/well in complete medium.

[1] = test system: proteasome (4UbFL reporter); assay: In vivo 4UbFL proteasome reporter in electroporated leg muscle, CD1 mice; design: species or system mouse
Description: A patch of CD1 mouse leg was shaved of hair and 10 μg 4Ub-FL plasmid in 20 μL of PBS was injected into the quadriceps femoralis muscle followed immediately by injection of the 2 Needle Array to 5 mm depth encompassing the injection site and square wave EP (ElectroSquarePorator 833, BTX-2 Needle array 5mm gap, Harvard apparatus) delivered as eight pulses at 106V for 20 ms with 200 ms intervals. One day post-EP, mice were anesthetized with isoflurane, injected IP with luciferin (0.3 mg in 100 μL water) and optical imaging was performed to determine basal level luciferase expression. Images were acquired for 10 min with a Xenogen IVIS 200 (Caliper, Hopkinton, MA). Equally sized areas were analyzed using Living Image 2.20 software.
Two days later, luciferin was injected IP and the baseline enzymic activity of luciferase in the transduced muscle tissue was visualized as bioluminescence within this region of interest (ROI) using an IVIS imager. […] After 4h, 24h and 48h the mice were again injected with luciferin, imaged and bioluminescence was quantified (Fig 5B).
A) ES2 cells stably transduced with the 4UbFL reporter plasmid were treated with compounds at indicated doses for 4 h. The cells were then washed, lysed and their luminescence measured by a luminometer after addition of luciferin. B) Female CD1 mice electroporated with 4UbFL plasmid in their leg muscle. After 48 h, the mice were injected with luciferin, imaged by IVIS for their basal bioluminescence and randomized into two groups of five. […] D) Up284 tissue distribution. […] Up284 levels in tissue samples were analyzed by HPLC. E) Up284 pharmacokinetics. […] Blood was collected at indicated time points thereafter and analyzed for Up284 levels by HPLC.

[2] = mouse, in vivo, iv, 20 mg/kg
Description: The mice were divided into three groups consisting of three female CD1 mice each. […] Terminal blood sampling for hematological and serum biochemical analysis was performed on Day 7 of the study, 24 h after the last dosing. […] Terminal bleeding and euthanasia were performed on Day 7, 24 h after the third dosing. Blood collection was carried out after 6 h fasting. Animals were injected IP with 2,2,2-tribromoethanol (200 mg/kg) and the blood was collected from orbital sinuses into dry microtainers without anticoagulant. For the serum collection, the tubes with collected blood were held at RT for 15–60 min after blood drawing to form a clot, and then were centrifuged at 9000 rpm for 20 min at 4°C. The collected serum was frozen within 60–80 min after blood drawing and was stored at -20°C for further clinical chemistry analysis. For the hematological study, 25 μL of fresh blood was quickly mixed with an equal volume of 0.36% solution of K2EDTA in saline. Assessment of the hematological parameters was performed using the BIO TE hematology analyzer MCL-3124 and consumable reagents (Cormay) within 2 h of the blood draw. For clinical chemistry analyses, ASAT, ALAT, ALP, LDH, GGT, CK, Creatinine, Urea and TP were determined in the serum using commercial kits according to the manufacturer’s instructions.

N#Cc1ccc(/C=C2/C(=O)/C(=C/c3ccc(C#N)cc3)C23CCNCC3)cc1 [Up284]
MHC class I antigen presentation (SIINFEKL on H-2Kb) (TC1-OVA cells): enhanced MHC class I antigen presentation | 4UbFL reporter stabilization in muscle, PO ([1]; Up284 PO once 40mg/kg vs ixazomib 10 mg/kg): better stabilized the reporter than ixazomib | duration of enhanced 4UbFL bioluminescence ([1]; single IP dose 40 mg/kg): > 48 h | 4UbFL bioluminescence in leg muscle ([1]; single IP dose 40 mg/kg, 4h, 24h and 48h): significantly enhanced bioluminescence levels | other blood parameters vs vehicle [2]: did not significantly change
